In brackets after ≈: the same amount, converted by molar mass.
Experiments:
[1] = molecular target: T1, Peroxisome proliferator-activated receptor delta (Mus musculus) (UniProt P35396); assay: Transactivation of Gal4-fused mouse PPARdelta expressed in CHO cells co expressing pG5-Luc reporter at 1 uM; type: cell-based; conditions: filed as agonist
T1 sequence (whole entry): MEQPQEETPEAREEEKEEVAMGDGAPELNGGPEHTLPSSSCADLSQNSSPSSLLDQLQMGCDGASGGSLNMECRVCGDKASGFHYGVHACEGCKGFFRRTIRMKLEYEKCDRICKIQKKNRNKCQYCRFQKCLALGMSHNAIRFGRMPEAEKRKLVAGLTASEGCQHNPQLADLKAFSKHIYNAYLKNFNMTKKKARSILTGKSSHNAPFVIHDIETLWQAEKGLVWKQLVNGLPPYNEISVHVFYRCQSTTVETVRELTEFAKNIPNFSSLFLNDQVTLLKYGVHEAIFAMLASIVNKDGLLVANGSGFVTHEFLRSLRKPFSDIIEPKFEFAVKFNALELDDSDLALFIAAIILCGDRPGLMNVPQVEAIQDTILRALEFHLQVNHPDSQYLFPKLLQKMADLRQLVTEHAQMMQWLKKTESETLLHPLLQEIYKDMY

[2] = molecular target: T2, Peroxisome proliferator-activated receptor alpha (Homo sapiens) (UniProt Q07869); assay: Transactivation of Gal4-fused human PPARalpha expressed in CHO cells co expressing pG5-Luc reporter at 10 uM; type: cell-based; conditions: filed as agonist
T2 sequence (whole entry): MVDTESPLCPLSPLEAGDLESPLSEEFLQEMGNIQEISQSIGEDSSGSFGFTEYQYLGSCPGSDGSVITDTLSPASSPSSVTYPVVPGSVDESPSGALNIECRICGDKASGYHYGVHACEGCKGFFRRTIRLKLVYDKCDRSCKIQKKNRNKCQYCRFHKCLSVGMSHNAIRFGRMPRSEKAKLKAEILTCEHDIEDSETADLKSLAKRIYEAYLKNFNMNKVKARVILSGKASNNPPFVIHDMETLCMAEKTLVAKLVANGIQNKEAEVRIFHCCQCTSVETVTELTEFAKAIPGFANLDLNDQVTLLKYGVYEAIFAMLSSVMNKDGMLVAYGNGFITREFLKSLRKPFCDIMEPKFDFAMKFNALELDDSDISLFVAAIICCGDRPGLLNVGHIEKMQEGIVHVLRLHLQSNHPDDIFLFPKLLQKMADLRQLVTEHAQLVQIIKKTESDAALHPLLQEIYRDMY

[3] = molecular target: T3, Peroxisome proliferator-activated receptor gamma (Homo sapiens) (UniProt P37231); assay: Transactivation of Gal4-fused human PPARgamma expressed in CHO cells co expressing pG5-Luc reporter at 10 uM; type: cell-based; conditions: filed as agonist
T3 sequence (whole entry): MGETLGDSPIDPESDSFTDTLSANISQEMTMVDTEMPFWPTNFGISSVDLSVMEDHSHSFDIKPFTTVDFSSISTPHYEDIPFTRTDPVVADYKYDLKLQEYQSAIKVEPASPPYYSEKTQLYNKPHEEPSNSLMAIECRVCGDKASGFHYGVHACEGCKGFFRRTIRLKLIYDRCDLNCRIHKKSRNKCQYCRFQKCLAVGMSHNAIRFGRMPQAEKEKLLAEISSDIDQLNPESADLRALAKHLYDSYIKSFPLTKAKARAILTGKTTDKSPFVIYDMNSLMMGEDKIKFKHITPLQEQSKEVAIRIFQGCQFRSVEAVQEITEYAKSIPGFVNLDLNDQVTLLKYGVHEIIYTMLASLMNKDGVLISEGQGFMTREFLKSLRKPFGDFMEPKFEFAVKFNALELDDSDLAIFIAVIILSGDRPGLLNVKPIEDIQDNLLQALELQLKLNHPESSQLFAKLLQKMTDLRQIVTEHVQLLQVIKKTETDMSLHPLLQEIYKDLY

[4] = molecular target: T2, Peroxisome proliferator-activated receptor alpha (Homo sapiens); assay: Transactivation of Gal4-fused human PPARalpha expressed in CHO cells co expressing pG5-Luc reporter at 1 uM; type: cell-based; conditions: filed as agonist
[5] = molecular target: T4, Peroxisome proliferator-activated receptor delta (Homo sapiens) (UniProt Q03181); assay: Transactivation of Gal4-fused human PPARdelta expressed in CHO cells co expressing pG5-Luc reporter at 10 uM; type: cell-based; conditions: filed as agonist
T4 sequence (whole entry): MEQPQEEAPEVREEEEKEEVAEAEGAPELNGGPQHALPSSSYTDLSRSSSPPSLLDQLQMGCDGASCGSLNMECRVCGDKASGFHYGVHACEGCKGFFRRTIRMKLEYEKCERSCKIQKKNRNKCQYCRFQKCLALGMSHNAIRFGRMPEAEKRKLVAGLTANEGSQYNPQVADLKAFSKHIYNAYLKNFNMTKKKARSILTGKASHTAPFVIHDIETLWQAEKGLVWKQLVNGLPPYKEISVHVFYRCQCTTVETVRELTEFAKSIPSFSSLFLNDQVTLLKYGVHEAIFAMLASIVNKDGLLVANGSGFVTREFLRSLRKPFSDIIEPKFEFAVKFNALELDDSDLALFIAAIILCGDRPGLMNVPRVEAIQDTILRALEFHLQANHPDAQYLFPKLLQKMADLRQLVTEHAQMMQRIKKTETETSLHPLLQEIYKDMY

[6] = molecular target: T5, Peroxisome proliferator-activated receptor alpha (Homo sapiens, UniProt Q07869); assay: Transactivation of Gal4-fused human PPARalpha expressed in CHO cells co expressing pG5-Luc reporter; type: cell-based
T5 sequence (Q07869 whole entry): T2 sequence (whole entry)

Mus musculus [7] = assay: Anti-obesity activity in […] mouse assessed as HDL cholesterol level at 30 mg/kg, po for 8 days (reference value: 103.5 +/- 3.2 %); type: functional; conditions: time 8 day
[8] = Metabolic stability in human liver microsomes assessed as parent compound remaining after 0.5 hrs relative to control; type: ADME, Microsome; conditions: read-out: Stability
[9] = molecular target: T6, Peroxisome proliferator-activated receptor delta (Mus musculus, UniProt P35396); assay: Transactivation of Gal4-fused mouse PPARdelta expressed in CHO cells co expressing pG5-Luc reporter; type: cell-based
T6 sequence (P35396 whole entry): T1 sequence (whole entry)

CYP2D6 = CYP2D6 (Homo sapiens, UniProt P10635); assay: Inhibition of CYP2D6 (unknown origin) assessed as residual activity at 20 uM by enzyme assay relative to control; type: ADME; conditions: read-out: Activity
Sequence of CYP2D6 (P10635 whole entry): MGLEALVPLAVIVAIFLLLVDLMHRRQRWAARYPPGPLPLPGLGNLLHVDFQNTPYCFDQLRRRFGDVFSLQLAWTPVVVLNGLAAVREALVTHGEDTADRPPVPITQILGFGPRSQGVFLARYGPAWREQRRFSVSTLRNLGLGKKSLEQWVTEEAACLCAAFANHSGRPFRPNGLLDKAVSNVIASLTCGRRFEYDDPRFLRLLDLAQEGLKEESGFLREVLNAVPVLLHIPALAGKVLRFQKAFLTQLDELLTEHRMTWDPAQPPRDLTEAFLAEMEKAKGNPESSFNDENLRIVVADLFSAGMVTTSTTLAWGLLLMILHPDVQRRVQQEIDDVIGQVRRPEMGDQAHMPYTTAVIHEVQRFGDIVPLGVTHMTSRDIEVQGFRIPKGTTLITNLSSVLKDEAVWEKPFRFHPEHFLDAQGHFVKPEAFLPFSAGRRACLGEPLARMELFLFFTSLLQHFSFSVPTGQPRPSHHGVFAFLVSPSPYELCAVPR

Mus musculus [10] = assay: Anti-obesity activity in […] mouse assessed as TG level at 30 mg/kg, po for 8 days (reference value: 162.8 +/- 21.4 mg/dL); type: functional; conditions: time 8 day
[11] = Kinetic solubility of compound at pH 6.8 by HPLC analysis; type: physicochemical; conditions: buffer, read-out: Kinetic_solubility
CYP3A4 = CYP3A4 (Homo sapiens, UniProt P08684); assay: Inhibition of CYP3A4 (unknown origin) assessed as residual activity at 20 uM by enzyme assay relative to control; type: ADME; conditions: read-out: Activity
Sequence of CYP3A4 (P08684 whole entry): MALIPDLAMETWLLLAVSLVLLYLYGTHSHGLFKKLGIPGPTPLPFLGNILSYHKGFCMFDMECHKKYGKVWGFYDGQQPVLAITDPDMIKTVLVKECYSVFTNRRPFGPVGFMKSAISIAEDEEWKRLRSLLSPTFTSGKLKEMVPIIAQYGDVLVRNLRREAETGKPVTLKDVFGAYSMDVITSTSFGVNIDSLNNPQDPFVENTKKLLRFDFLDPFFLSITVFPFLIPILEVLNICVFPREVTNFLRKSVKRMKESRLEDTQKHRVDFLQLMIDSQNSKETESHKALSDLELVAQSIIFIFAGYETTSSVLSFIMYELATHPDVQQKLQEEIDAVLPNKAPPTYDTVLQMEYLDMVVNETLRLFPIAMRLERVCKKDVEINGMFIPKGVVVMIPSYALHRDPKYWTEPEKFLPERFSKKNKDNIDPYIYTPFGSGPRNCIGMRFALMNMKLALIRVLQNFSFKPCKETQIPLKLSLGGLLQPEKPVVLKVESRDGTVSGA

[12] = Total clearance in rat dosed as mixture; type: ADME, organism-based; conditions: in vivo
[13] = Metabolic stability in rat liver microsomes assessed as parent compound remaining after 0.5 hrs relative to control; type: ADME, Microsome; conditions: read-out: Stability
[14] = molecular target: PPAR delta/gamma (Homo sapiens) (UniProt P37231+Q03181); assay: Selectivity index, ratio of EC50 for human PPAgamma to EC50 for human PPARdelta; type: protein assay
[15] = molecular target: T7, Peroxisome proliferator-activated receptor delta (Homo sapiens, UniProt Q03181); assay: Transactivation of Gal4-fused human PPARdelta expressed in CHO cells co expressing pG5-Luc reporter; type: cell-based
T7 sequence (Q03181 whole entry): T4 sequence (whole entry)

Homo sapiens = species: Homo sapiens; assay: Selectivity index, ratio of EC50 for human PPARalpha to EC50 for human PPARdelta
CYP2C9 = CYP2C9 (Homo sapiens, UniProt P11712); assay: Inhibition of CYP2C9 (unknown origin) assessed as residual activity at 20 uM by enzyme assay relative to control; type: ADME; conditions: read-out: Activity
Sequence of CYP2C9 (P11712 whole entry): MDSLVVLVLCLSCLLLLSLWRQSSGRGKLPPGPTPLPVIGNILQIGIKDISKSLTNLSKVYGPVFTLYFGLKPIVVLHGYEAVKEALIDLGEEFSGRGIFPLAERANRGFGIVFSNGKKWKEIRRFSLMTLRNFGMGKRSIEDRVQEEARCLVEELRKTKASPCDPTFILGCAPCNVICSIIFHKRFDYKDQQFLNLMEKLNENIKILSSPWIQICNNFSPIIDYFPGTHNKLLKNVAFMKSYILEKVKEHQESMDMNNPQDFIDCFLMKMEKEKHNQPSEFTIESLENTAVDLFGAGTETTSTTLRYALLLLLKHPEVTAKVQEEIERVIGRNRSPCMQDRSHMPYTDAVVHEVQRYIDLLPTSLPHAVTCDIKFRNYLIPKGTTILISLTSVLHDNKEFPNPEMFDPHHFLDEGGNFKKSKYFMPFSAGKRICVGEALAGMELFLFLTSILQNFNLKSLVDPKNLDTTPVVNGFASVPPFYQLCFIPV

CYP1A2 = molecular target: T8, CYP1A2 (Homo sapiens, UniProt P05177); assay: Inhibition of CYP1A2 (unknown origin) assessed as residual activity at 20 uM by enzyme assay relative to control; type: ADME; conditions: read-out: Activity
T8 sequence (P05177 whole entry): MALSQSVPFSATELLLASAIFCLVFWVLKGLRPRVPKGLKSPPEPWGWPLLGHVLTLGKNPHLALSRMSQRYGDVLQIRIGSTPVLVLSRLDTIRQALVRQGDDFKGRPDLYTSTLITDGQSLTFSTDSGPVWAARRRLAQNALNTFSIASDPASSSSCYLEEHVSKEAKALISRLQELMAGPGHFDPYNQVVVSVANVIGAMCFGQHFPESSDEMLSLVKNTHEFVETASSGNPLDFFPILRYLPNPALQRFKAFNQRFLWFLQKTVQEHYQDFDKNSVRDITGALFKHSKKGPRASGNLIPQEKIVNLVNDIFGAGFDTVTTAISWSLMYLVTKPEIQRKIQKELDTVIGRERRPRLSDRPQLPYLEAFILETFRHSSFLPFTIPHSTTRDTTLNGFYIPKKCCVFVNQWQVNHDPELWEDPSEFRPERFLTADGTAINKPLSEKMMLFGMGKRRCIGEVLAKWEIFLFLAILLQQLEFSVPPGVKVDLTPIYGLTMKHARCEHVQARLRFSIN

[16] = molecular target: T9, Peroxisome proliferator-activated receptor gamma (Homo sapiens, UniProt P37231); type: cell-based, CHO
T9 sequence (P37231 whole entry): T3 sequence (whole entry)

[17] = Half life in rat dosed as mixture; type: ADME, organism-based; conditions: in vivo
Mus musculus [18] = assay: Anti-diabetic activity in […] mouse assessed as glucose level at 30 mg/kg, po for 8 days (reference value: 737 +/- 52 mg/dL); type: functional; conditions: time 8 day

fold change (FC) [1]	fold change (FC) [4]	EC50 [6] [µM]	EC50 [9] [µM]	EC50 [15] [µM]	EC50 [16] [µM]	SMILES	also measured
2	2.4					O=C(O)CCC(=O)OCCC1CCN(c2nc3ccc(Cl)cc3s2)CC1	fold change (FC) [2]: 8.6; fold change (FC) [3]: 1.5; fold change (FC) [5]: 11
7	2.5					O=C(O)Cc1cccc(OCC2CCN(c3nc4ccc(Cl)cc4s3)CC2)c1	
		0.637	0.0712	0.0164	0.542	Cc1ccc(CC(=O)O)cc1OCCC1CCN(c2nc3ccc(Cl)cc3s2)CC1	Activity (Mus musculus [7]): 118%; remaining at 0.5 h [8]: 96%; activity at 20 µM (CYP2D6): 94%; Activity (Mus musculus [10]): 63.9 mg/dL; solubility kinetic [11]: 21.8 µM (≈ 9.7 µg/mL); activity at 20 µM (CYP3A4): > 99%; clearance [12]: 14.3 mL/min/kg; remaining at 0.5 h [13]: 101%; Ratio EC50 [14]: 33; Ratio EC50 (Homo sapiens): 38; activity at 20 µM (CYP2C9): 58%; activity at 20 µM (CYP1A2): 92%; half-life [17]: 1.8 h; Activity (Mus musculus [18]): 415 mg/dL
	1.2					CN(CCOc1ccc(CC2SC(=O)NC2=O)cc1)c1ccccn1 (stereo not drawn)	
	1.5					O=C(O)CCC(=O)OCCN1CCN(c2nc3ccc(Cl)cc3s2)CC1	fold change (FC) [2]: 3; fold change (FC) [3]: 1.5; fold change (FC) [5]: 2.8
			0.83	0.11	0.98	Cc1ccc(OCCC2CCN(c3nc4ccc(Cl)cc4s3)CC2)cc1CC(=O)O	
30.4	3.1					Cc1cc(SCc2sc(-c3ccc(C(F)(F)F)cc3)nc2C)ccc1OCC(=O)O [GW501516]	Activity (Mus musculus [7]): 132.9%; Activity (Mus musculus [10]): 82.4 mg/dL; Activity (Mus musculus [18]): 493 mg/dL
2.2	1.5					O=C(O)CCc1cccc(OCCC2CCN(c3nc4ccc(Cl)cc4s3)CC2)c1	
		3.6	0.33	0.12	0.68	CCc1ccc(CC(=O)O)cc1OCCC1CCN(c2nc3ccc(Cl)cc3s2)CC1	
		0.955	0.151	0.0929	1.07	Cc1cc(CC(=O)O)cc(OCCC2CCN(c3nc4ccc(Cl)cc4s3)CC2)c1	
1.4	7.5					O=C(O)c1cccc(OCCC2CCN(c3nc4ccc(Cl)cc4s3)CC2)c1	
		2.22	1.06	0.263		O=C(O)Cc1cccc(OCCC2CCN(c3nc4ccc(Cl)cc4s3)CC2)c1	

Source: ChEMBL document CHEMBL5131453, “Discovery and structure-based design of a new series of potent and selective PPARδ agonists utilizing a virtual screening method” (Bioorg Med Chem Lett, 2022)
